Measurements published in ChEMBL document CHEMBL1201862, “PubChem BioAssay data set” (2004).
The source made the active and inactive calls.

What was measured:
[1] = biological target: Ion channel NompC (Danio rerio, UniProt Q7T1G6); test: Fluorescence counterscreen assay for TRPML3 agonists: dose response cell-based high-throughput screening assay to identify agonists of the transient receptor potential channel N1 (TRPN1). [Related pubchem assays: 1526, 1424, 1448 ]; type: functional
[2] = biological target: T1, Mucolipin-3 (Homo sapiens, UniProt Q8TDD5); test: Dose response cell-based high-throughput screening assay for agonists of the transient receptor potential channel ML3 (TRPML3). [Related pubchem assays: 1526, 1424, 1448 ]; type: functional
T1 sequence (Q8TDD5 whole entry): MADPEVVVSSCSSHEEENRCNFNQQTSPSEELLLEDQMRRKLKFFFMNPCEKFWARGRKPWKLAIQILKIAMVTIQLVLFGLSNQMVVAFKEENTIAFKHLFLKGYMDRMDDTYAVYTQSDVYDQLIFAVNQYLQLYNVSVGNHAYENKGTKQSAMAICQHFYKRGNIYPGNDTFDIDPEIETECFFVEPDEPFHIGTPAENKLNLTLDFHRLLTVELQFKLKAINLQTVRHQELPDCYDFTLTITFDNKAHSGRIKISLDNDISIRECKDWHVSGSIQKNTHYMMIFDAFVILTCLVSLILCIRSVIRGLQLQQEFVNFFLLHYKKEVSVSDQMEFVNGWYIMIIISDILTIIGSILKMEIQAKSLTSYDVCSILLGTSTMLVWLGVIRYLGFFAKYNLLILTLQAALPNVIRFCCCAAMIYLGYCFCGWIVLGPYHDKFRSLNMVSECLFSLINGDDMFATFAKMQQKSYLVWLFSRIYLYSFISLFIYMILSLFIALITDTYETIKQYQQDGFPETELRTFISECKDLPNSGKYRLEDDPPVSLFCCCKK

[3] = biological target: T2, Cytochrome P450 3A4 (Homo sapiens, UniProt P08684); settings: Potency
T2 sequence (P08684 whole entry): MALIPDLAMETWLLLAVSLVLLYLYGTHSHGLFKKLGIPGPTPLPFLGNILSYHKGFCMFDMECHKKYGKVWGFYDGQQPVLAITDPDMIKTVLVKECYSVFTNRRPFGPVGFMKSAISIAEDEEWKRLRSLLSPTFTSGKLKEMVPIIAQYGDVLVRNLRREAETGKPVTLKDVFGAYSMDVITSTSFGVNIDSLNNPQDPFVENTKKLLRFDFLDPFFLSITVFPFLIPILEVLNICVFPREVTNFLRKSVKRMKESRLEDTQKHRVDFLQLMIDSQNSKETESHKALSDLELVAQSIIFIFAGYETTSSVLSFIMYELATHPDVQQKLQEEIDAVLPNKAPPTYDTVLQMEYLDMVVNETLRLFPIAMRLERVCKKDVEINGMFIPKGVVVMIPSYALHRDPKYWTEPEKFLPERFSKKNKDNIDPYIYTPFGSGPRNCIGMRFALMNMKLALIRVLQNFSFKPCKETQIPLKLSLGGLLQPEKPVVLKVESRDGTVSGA

[4] = HepG2 cell cytotoxicity, dose response, cytotoxicity control for non-replicating M. tuberculosis project (AID 489018); type: functional; settings: Mycobacterium tuberculosis
[5] = biological target: T3, High affinity choline transporter 1 (Homo sapiens, UniProt Q9GZV3); test: human choline transporter blockers, potency – cell-based, 5-point CRC, membrane potential dye, dose response (AID 504840); type: functional
T3 sequence (Q9GZV3 whole entry): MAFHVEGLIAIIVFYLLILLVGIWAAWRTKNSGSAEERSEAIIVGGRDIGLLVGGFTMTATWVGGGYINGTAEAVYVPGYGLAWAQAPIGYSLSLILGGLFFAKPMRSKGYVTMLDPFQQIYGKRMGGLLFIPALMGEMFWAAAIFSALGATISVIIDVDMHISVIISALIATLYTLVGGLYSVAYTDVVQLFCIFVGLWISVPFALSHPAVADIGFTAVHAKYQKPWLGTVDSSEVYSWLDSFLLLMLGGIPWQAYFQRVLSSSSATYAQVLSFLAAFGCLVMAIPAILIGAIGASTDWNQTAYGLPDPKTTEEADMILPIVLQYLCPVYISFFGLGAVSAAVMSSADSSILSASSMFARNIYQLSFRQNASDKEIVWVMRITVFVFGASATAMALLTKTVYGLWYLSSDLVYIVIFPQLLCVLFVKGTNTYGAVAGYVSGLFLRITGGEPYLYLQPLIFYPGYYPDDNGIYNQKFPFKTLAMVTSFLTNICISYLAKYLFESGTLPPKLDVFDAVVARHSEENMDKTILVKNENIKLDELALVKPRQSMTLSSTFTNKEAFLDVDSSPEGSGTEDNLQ

[6] = THP-1 cell cytotoxicity, dose response, cytotoxicity control for non-replicating M. tuberculosis project (AID 489025); type: functional
[7] = Vero E6 cell cytotoxicity, dose response, cytotoxicity control for non-replicating M. tuberculosis project, secondary assay (AID 492998); type: functional, VeroE6; settings: Vero C1008
[8] = cells; type: functional
[9] = HEK-293T viability loss after treatment – luminescence, T-cell screen hits, cytotoxicity control for TCR NF-kB inhibitor project, dose response (AID 489026); type: functional, cell-based;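 further: cells exposed to compound about 14 hours before the viability readout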
[10] = biological target: Voltage-dependent T-type calcium channel subunit alpha-1H (Homo sapiens, UniProt O95180); type: functional;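 further: channel activity triggered by adding a high calcium stimulation buffer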
Sequence of Voltage-dependent T-type calcium channel subunit alpha-1H (O95180 whole entry): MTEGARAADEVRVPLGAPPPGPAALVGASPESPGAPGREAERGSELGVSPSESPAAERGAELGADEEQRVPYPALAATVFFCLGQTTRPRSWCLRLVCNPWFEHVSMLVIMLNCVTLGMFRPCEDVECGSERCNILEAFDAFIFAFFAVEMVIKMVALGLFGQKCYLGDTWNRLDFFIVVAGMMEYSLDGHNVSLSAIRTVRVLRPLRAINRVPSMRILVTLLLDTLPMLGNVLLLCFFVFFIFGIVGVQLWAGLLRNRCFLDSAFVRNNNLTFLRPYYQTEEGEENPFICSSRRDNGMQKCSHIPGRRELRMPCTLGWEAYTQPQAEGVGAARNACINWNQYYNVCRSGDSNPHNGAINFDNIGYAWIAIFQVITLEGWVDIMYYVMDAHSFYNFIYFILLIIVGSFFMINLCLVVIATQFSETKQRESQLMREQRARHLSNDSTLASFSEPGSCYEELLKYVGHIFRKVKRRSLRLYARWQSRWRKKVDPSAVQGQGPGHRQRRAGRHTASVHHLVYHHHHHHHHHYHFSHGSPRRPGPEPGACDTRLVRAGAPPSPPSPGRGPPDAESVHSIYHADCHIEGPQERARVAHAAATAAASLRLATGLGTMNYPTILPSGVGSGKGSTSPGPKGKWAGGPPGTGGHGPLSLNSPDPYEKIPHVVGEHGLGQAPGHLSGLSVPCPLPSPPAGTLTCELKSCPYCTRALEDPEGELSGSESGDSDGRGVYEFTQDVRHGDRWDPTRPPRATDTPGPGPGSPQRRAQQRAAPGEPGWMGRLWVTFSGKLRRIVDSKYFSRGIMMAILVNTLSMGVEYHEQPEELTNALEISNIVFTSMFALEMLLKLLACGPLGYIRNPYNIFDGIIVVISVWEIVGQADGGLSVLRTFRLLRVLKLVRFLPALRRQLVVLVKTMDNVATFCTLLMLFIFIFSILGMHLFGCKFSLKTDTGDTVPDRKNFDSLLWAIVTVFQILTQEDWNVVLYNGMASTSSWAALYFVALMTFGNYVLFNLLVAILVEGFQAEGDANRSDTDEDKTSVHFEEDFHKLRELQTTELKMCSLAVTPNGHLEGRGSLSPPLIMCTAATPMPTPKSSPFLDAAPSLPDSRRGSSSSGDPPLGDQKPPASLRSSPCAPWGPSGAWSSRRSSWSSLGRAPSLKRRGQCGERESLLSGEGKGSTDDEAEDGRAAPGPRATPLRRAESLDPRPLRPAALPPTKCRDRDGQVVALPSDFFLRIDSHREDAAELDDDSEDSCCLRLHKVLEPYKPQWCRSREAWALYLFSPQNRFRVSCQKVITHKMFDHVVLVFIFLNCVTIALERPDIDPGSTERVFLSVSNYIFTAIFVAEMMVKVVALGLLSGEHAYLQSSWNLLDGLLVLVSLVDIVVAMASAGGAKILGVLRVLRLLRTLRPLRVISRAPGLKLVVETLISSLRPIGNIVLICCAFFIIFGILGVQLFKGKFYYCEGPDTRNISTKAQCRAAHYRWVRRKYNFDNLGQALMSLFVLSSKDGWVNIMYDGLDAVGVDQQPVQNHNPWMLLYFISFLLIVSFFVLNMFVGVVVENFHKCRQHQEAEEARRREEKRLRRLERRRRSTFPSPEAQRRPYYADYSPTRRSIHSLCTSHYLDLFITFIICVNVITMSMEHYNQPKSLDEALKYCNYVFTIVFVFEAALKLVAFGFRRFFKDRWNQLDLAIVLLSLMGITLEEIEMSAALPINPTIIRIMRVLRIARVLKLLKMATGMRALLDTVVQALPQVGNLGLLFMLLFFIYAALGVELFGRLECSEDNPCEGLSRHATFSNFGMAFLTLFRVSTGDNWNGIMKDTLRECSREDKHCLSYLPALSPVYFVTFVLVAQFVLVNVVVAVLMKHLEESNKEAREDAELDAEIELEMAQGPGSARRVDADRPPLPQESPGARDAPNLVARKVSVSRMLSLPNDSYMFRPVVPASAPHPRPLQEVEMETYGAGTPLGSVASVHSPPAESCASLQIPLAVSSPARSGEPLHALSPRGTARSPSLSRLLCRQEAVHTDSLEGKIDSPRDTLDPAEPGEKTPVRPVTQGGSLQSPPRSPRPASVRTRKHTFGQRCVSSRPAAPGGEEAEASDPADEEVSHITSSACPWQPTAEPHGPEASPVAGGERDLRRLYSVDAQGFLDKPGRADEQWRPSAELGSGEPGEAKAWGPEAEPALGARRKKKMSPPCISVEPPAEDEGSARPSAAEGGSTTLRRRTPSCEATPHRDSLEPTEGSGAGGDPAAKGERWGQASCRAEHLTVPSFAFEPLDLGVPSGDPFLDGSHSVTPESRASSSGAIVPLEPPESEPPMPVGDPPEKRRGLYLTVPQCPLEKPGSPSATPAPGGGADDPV

[11] = biological target: T4, Heat shock factor protein 1 (Mus musculus, UniProt P38532); test: enhancement of HSF1-driven luciferase signal – cell-based, NIH3T3, luminescence, dose retest, confirmation (AID 435004); type: functional;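 further: stress induced by proteasome inhibitor MG132 added 30 min after compound; luciferase reporter driven by HSF1 response element in NIH3T3 cells; actives raise luminescence as potentiators of the MG132 stress response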
T4 sequence (P38532 whole entry): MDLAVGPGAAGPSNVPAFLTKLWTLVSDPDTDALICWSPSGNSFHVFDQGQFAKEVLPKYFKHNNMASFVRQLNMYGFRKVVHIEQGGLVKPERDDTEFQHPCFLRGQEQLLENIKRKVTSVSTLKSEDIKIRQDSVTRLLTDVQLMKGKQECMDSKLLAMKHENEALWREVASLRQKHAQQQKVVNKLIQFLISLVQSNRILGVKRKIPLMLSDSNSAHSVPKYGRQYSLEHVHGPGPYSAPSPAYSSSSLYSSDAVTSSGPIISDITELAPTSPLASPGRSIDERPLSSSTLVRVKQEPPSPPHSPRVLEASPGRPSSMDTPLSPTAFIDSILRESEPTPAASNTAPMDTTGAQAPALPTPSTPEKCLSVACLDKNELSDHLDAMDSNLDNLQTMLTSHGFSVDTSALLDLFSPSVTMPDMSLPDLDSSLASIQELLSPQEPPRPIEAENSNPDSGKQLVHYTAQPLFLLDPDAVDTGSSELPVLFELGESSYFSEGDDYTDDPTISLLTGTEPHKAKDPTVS

[12] = biological target: Beta-galactosidase (Escherichia coli, UniProt Q8VNN2); test: detection-enzyme interference by beta-gal modulators – biochemical, E. coli enzyme, set 3, artefact control for CCR6 antagonist project, dose response (AID 504712); type: functional
[13] = NIH3T3 cell viability loss – ATP luminescence, mouse fibroblasts, counter-screen, dose response (AID 2010); type: functional, cell-based;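 further: cells exposed to compound for about 90 hours before reading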
[14] = Trypanosoma cruzi growth suppression in host cells – NIH3T3 host cells, beta-gal luminescence, confirmation (AID 2044); type: functional, cell-based;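 further: intracellular parasites grown in NIH/3T3 mouse fibroblasts as host cells; luminescent beta-galactosidase reporter signal from transgenic T. cruzi replicating inside host cells; inhibitors lower the luminescence signal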
[15] = cells
[16] = biological target: T5, Corticotropin-releasing factor receptor 2/Corticotropin-releasing factor-binding protein (Homo sapiens, UniProt P24387+Q13324); test: activators of CRF receptor 2 with binding protein – uHTS hits, confirmation (AID 602473); type: functional; settings: read-out: EC50_Mean
T5 sequence (Q13324 whole entry): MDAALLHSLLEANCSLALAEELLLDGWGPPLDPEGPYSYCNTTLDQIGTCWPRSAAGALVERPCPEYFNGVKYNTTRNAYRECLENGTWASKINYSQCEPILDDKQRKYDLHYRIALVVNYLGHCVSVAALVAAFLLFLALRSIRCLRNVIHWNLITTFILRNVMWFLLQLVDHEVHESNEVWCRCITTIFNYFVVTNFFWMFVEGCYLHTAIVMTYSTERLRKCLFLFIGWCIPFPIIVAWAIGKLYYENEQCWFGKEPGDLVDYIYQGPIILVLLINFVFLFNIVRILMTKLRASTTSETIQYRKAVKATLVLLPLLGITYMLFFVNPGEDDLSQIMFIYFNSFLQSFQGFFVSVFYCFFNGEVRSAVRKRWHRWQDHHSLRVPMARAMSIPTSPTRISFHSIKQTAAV
T5 sequence (P24387 whole entry): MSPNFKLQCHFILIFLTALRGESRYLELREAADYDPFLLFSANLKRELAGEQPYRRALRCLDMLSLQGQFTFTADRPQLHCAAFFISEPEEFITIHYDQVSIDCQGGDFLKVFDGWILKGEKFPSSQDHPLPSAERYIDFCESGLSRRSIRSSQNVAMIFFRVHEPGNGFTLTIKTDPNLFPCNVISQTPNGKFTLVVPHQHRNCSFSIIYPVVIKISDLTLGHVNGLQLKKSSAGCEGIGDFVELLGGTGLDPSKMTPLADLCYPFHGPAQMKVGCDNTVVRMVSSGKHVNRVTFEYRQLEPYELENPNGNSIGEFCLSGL

[17] = biological target: T5, Corticotropin-releasing factor receptor 2/Corticotropin-releasing factor-binding protein; test: Dose Response confirmation of uHTS hits for small molecule antagonists of the CRF-binding protein and CRF-R2 receptor complex.; type: functional; settings: read-out: IC50_Mean
[18] = test system: INS1; test: INS-1E survival protection against cytokine death – cell-based, luminescence, retest, dose response (AID 449756); type: functional; settings: Rattus norvegicus;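 further: cell death triggered by IL-1 beta plus TNF-alpha plus IFN-gamma mixture; protective hits raise ATP signal compared with cytokine alone wells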
[19] = biological target: T2, Cytochrome P450 3A4
[20] = biological target: Neurotensin receptor type 1 (Homo sapiens, UniProt P30989); type: functional;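 further: Image-based confirmatory dose-response assay measuring agonist activity at NTR1; NTR1-expressing U2OS osteosarcoma cells imaged for beta-arrestin GFP spot formation; agonist potency where compounds increase beta-arrestin recruitment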
Sequence of Neurotensin receptor type 1 (P30989 whole entry): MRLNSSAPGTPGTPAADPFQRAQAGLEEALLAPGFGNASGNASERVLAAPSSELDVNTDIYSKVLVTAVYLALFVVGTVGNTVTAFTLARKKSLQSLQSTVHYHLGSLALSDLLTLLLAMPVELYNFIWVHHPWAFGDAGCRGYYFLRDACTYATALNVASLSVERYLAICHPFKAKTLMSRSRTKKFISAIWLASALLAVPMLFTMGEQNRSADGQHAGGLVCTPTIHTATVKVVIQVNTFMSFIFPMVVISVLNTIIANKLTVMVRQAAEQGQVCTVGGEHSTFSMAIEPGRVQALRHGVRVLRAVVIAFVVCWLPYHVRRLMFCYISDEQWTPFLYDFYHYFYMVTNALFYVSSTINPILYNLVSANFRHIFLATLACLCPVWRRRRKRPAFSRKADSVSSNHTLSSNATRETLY

[21] = biological target: T6, Streptokinase A (Streptococcus pyogenes serotype M1, UniProt P10520); test: viability-normalized secreted streptokinase activity reduction – plasminogen activation absorbance, OD405, dose response (AID 1914); type: functional, Streptococcus pyogenes M1 GAS;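 further: secreted streptokinase activity via plasminogen activation per viability signal from cell pellet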
T6 sequence (P10520 whole entry): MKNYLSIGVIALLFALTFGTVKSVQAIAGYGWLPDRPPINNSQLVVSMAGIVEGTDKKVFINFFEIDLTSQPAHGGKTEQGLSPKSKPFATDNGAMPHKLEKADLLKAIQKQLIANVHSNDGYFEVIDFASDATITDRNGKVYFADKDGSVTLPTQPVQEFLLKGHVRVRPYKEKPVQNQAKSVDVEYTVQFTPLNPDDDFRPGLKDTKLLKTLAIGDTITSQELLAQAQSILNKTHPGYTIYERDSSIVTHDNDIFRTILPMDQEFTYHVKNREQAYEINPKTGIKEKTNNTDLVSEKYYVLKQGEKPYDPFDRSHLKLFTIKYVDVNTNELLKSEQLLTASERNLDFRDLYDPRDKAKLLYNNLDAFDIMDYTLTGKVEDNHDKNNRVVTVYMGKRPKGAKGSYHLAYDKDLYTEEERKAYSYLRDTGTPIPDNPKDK

[22] = test system: Streptococcus; test: GAS UMAA2166 growth inhibition – luminescence, BacTiterGlo, counter-screen for streptokinase expression inhibitor project, dose response (AID 1915); type: functional, organism-based;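 further: potency for reduction of bacterial viability or growth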
[23] = test system: Streptococcus sp. 'group A'; test: Streptococcus pyogenes SK(-)GAS viability under kanamycin – luminescence, BacTiterGlo, confirmation, counter-screen for streptokinase expression inhibitor project, dose response (AID 1900); type: functional, organism-based
[24] = fluconazole-exposed Candida albicans growth modulators – fluorescence, retest, confirmation (AID 2467); type: functional, cell-based
[25] = NIH-3T3 fibroblast cytotoxicity, dose response, cytotoxicity control, cell-based, fluorescence, Alamar Blue, secondary assay (AID 2327); type: functional;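 further: NIH-3T3 mouse fibroblasts cultured with fluconazole at 8 µg/mL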

Sequence of Ion channel NompC (Q7T1G6 whole entry): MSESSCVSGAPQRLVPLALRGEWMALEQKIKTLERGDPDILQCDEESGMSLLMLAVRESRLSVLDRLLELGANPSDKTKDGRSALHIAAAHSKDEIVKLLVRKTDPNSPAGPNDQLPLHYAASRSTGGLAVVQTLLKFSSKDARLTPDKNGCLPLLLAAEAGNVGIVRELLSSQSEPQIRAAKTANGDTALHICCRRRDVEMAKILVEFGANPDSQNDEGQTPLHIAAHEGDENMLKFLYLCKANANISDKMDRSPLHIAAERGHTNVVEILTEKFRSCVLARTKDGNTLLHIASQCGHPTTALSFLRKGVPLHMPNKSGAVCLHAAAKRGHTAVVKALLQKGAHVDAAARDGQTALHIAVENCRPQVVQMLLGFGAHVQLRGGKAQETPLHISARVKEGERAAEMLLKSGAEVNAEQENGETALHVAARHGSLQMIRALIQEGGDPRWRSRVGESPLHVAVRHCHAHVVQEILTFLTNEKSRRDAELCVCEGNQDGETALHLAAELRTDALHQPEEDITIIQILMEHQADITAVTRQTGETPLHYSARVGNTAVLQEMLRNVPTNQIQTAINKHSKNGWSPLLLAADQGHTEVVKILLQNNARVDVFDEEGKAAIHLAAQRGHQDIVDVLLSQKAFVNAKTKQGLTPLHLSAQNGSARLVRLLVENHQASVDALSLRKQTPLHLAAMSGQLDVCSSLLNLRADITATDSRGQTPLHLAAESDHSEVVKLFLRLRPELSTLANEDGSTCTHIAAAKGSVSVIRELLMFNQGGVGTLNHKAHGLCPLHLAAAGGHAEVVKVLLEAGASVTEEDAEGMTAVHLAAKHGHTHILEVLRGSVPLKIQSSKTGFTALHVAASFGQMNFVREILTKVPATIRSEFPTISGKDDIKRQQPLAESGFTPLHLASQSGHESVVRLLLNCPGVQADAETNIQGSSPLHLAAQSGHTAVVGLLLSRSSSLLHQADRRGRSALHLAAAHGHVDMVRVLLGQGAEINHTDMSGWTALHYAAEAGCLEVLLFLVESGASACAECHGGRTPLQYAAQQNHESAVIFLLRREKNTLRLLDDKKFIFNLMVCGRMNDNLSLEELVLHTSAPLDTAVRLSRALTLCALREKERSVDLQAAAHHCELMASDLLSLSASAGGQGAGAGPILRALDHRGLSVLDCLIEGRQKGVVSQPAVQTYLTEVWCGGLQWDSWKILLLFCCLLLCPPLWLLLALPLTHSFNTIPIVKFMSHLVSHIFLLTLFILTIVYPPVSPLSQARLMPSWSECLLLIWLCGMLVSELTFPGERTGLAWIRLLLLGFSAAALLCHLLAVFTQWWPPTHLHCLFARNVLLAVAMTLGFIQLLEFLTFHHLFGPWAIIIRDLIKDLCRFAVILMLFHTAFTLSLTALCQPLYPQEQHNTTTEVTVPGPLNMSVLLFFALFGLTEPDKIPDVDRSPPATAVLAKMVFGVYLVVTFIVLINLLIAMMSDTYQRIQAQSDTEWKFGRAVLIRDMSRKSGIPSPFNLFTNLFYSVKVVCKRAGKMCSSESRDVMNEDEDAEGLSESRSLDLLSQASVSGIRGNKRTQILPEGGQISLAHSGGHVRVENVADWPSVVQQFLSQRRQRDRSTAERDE

Cc1ccc(S(=O)(=O)N(C)CC(=O)ONC(=N)c2cccc([N+](=O)[O-])c2)cc1
EC50 [1]: > 29.9 µM (not active) | EC50 [2]: 12.1 µM (not active)

COc1c2c(cc3c1OCO3)C13C=CC(OC)CC1N(C2)CC3O (stereo not given)
AC50 [3]: 39.8 µM (inconclusive)

Cc1cccc(OCC(O)Cn2c(=N)n(Cc3ccccc3)c3ccccc32)c1 (stereo not given)
CC50 [4]: > 20 µM (active) | IC50 [5]: 6.92 µM (active) | CC50 [6]: 23.3 µM (active)

COc1cc(C(=O)N/N=C/c2cc([N+](=O)[O-])cs2)cc(OC)c1OC
CC50 [4]: > 20 µM (active) | CC50 [7]: 5.03 µM (active) | IC50 [8]: 870 nM (active) | IC50 [9]: > 80 µM (inactive) | CC50 [6]: 0.724 µM (active)

CNC(=O)[C@H](C)/C=C(\c1cccnc1)C(NC(=O)OCc1ccccc1)c1ccc(C(=O)OC)cc1 (stereo not given in full)
AC50 [3]: 20 µM (inconclusive)

CCc1ccccc1NC(=O)c1cc2sccc2n1C
EC50 [10]: 12 µM (active)

CCOC(=O)c1c(N2C(=O)C=CC2=O)sc(C)c1C
EC50 [11]: 4.22 µM (active) | IC50 [12]: > 66.6 µM (inactive)

CCN(CC)CCN(C(=O)CN1C(=O)c2ccccc2C1=O)c1nc2cc3c(cc2s1)OCO3
EC50 [13]: > 60 µM (not active) | EC50 [14]: < 100 nM (active) | EC50 [15]: 349 nM (active) | EC50 [16]: > 53 µM (inactive) | IC50 [17]: > 47.1 µM (inactive)

C=C1C(=O)OC2C1CC/C(C)=C/CCC1(C)OC21 (stereo not given)
AC50 [3]: 25.1 µM (inconclusive)

C=CCOc1ccc2c(c1)c(S(=O)(=O)c1ccc(C)cc1)cn2COC
EC50 [1]: > 29.9 µM (not active) | EC50 [2]: 1.16 µM (active)

COc1cc(C)nc(N(Cc2ccccc2)S(=O)(=O)c2ccc(C)cc2)n1
EC50 [1]: > 29.9 µM (not active) | EC50 [2]: 6.93 µM (active)

C=CCN(CC=C)CC(O)Cn1c2ccccc2c2ccccc21 (stereo not given)
AC50 [18]: > 120 µM (inactive) | EC50 [10]: 9.06 µM (active) | AC50 [19]: 28.2 µM (inconclusive)

Cc1ccc2c(c1)C(O)(c1c(C)[nH]c3ccccc13)C(=O)N2 (stereo not given)
EC50 [10]: 8.82 µM (active)

CCOc1cc(/C=C2/C(=O)ON=C2C)ccc1OCc1ccccc1
EC50 [20]: 23 µM (inactive)

C[C@H](NC(=O)c1[nH]cnc1C(=O)NCc1ccc(CNC(=O)OC(C)(C)C)cc1)C(=O)OCc1ccccc1
EC50 [20]: 19.4 µM (active)

O=[N+]([O-])c1cc(Cl)cc(/C=N/Nc2nc3ccccc3s2)c1O
EC50 [21]: > 150 µM (not active) | CC50 [4]: 16.4 µM (active) | CC50 [7]: 10.4 µM (active) | EC50 [22]: 7.64 µM (active) | IC50 [8]: 2820 nM (active) | EC50 [23]: 2.17 µM (active) | CC50 [6]: 10 µM (active)

CC(C)c1ccc(C2=C(O)C(=O)c3ccccc3C2=O)cc1
CC50 [7]: 16.5 µM (active) | EC50 [24]: 1.11 µM (active) | EC50 [25]: 67.1 µM (active)

Cc1cc(Br)ccc1OCCCCN1CCCCC1
EC50 [13]: > 60 µM (not active) | CC50 [4]: > 20 µM (active) | EC50 [14]: 750 nM (active) | CC50 [6]: > 40 µM (active)
